Legend:
[1] = target: purified recombinantly expressed human SSAO (Homo sapiens (Human), UniProt Q16853); test: SSAO enzyme inhibition assay (HRP-coupled hydrogen peroxide detection or 14C-benzaldehyde detection, benzylamine substrate); assay type: biochemical; conditions: SSAO inhibitory activity, human recombinant SSAO, RT
Method in brief: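 Human recombinant SSAO pre-incubated ~15 min with compound, room temperature. Radiometric format: 10 ug/ml enzyme, 40 uM 14C-benzylamine, 1 h, in PBS. IC50 by four-parameter fit.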

[2] = target: human ether a go-go related gene (hERG) K+ channel (Homo sapiens (Human), UniProt Q12809); test: hERG assay, IonWorks patch clamp electrophysiology; assay type: cell-based; conditions: Chinese Hamster Lung cell line stably expressing hERG; max assay concentration 11 uM
Description: Compounds of the invention were tested for inhibition of the human ether a go-go related gene (hERG) K^+ channel using IonWorks patch clamp electrophysiology. 8 Point concentration-response curves were generated on two occasions using 3-fold serial dilutions from the maximum assay concentration (11 uM). Electrophysiological recordings were made from a Chinese Hamster Lung cell line stably expressing the full length hERG channel. Single cell ion currents were measured in the perforated patch clamp configuration (100 ug/mL amphoterocin) at room temperature using an IonWorks Quattro instrument. The internal solution contained 140 mM KCl, 1 mM MgCl2, 1 mM EGTA and 20 mM HEPES and was buffered to pH 7.3. The external solution contained 138 mM NaCl, 2.7 mM KCl, 0.9 mM CaCl2, 0.5 mM MgCl2, 8 mM Na2HPO4 and 1.5 mM KH2PO4, and was buffered to pH 7.3. […] This sequence was repeated 5 times at a frequency of 0.25 Hz. Currents were measured from the tail step at the 5th pulse, and referenced to the holding current. Compounds were incubated for 6-7 min prior to a second measurement of the hERG signal using an identical pulse train. […] A control compound (quinidine) was used (see Table 20 below).

human ether a go-go related gene (hERG) K+ channel, sequence (Q12809 whole entry): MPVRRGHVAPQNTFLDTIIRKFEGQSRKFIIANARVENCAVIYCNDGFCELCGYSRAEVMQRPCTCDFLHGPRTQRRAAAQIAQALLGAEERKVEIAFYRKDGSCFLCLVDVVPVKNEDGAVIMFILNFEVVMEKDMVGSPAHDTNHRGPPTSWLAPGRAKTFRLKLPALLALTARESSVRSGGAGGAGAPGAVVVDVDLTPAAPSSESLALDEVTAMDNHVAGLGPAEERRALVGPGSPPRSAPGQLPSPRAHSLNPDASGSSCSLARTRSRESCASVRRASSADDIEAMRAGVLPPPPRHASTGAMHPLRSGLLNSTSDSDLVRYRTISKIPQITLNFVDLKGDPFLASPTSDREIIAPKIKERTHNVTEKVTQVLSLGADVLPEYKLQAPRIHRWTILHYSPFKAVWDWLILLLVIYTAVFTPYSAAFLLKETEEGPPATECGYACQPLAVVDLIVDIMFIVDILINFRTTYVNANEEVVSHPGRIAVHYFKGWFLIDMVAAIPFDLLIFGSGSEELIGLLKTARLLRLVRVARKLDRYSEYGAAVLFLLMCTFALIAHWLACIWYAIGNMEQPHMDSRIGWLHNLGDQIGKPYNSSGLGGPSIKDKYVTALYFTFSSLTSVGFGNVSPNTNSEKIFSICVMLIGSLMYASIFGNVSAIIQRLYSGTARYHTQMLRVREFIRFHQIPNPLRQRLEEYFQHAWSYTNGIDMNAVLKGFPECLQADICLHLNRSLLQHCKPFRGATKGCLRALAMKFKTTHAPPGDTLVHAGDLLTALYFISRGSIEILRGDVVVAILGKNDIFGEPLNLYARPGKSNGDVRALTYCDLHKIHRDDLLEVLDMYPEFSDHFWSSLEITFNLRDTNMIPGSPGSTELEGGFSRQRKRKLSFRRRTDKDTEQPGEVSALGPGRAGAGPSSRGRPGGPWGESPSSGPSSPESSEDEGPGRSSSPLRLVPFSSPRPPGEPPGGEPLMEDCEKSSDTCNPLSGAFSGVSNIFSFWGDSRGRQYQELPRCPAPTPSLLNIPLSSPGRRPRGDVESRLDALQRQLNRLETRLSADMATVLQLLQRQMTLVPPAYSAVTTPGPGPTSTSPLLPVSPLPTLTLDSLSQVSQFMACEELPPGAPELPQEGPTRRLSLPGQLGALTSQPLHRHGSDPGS
purified recombinantly expressed human SSAO, sequence (Q16853 29-763): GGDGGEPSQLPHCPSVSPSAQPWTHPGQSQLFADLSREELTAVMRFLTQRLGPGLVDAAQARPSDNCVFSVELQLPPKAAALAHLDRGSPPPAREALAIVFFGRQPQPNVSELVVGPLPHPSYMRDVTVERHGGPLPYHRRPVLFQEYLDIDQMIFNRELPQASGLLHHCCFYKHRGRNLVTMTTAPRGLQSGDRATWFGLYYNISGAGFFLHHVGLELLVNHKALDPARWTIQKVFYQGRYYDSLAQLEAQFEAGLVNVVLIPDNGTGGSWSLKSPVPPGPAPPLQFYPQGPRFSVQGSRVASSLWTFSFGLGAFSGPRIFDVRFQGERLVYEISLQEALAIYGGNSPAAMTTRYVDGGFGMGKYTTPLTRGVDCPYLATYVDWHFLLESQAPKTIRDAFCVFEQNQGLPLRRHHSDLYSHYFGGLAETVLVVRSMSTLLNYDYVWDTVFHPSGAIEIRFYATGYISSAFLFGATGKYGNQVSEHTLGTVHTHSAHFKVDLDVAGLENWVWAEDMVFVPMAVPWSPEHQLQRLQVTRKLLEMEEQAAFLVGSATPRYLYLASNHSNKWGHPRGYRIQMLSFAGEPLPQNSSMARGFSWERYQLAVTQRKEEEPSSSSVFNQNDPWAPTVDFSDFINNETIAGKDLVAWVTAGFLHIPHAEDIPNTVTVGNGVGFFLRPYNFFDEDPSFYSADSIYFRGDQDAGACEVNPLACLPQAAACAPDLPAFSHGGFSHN

Structure (SMILES)	IC50 [1]	IC50 [2]
CC(=O)N1CCN(c2ccc(-c3nc4ccncc4n3-c3ccc(F)cc3)cn2)CC1 [Example 86, 1-(4-{5-[3-(4-Fluorophenyl)-3H-imidazo[4,5-c]pyridin-2-yl]pyridin-2-yl}piperazin-1-yl)ethan-1-one]	< 0.05 µM	> 10 µM
CS(=O)(=O)N1CCN(c2ccc(-c3nc4ccncc4n3-c3ccc(F)cc3)cn2)CC1 [Example 89, 1-{5-[3-(4-Fluorophenyl)-3H-imidazo[4,5-c]pyridin-2-yl]pyridin-2-yl}-4-methanesulfonylpiperazine]	< 0.05 µM	> 10 µM
NC(=O)N1CCN(c2ccc(-c3nc4ccncc4n3-c3ccc(F)cc3)cn2)CC1 [Example 92, 4-{5-[3-(4-Fluorophenyl)-3H-imidazo[4,5-c]pyridin-2-yl]pyridin-2-yl}piperazine-1-carboxamide]	< 0.05 µM	> 10 µM

Second part, led by results:

IC50 [1]	Structure (SMILES)	IC50 [2]
< 0.05 µM	O=C1CN(c2ncc(-c3cc4ccncc4n3-c3ccc(Cl)cc3)cn2)CCN1 [Example 128, 4-{5-[1-(4-Chlorophenyl)-1H-pyrrolo[2,3-c]pyridin-2-yl]pyrimidin-2-yl}piperazin-2-one]	> 10 µM
< 0.05 µM	Cn1cncc1-c1cc2ccncc2n1-c1ccc(Cl)cc1 [Example 136, 5-[1-(4-Chlorophenyl)-1H-pyrrolo[2,3-c]pyridin-2-yl]-1-methyl-1H-im idazole]	1 to 10 µM
